Here are results for 16 molecules from PubChem BioAssay AID218 (DTP/NCI, 2004).

The assay relates to C57BL/6 mice, Adenocarcinoma 755 sc, tumor weight T/C. The experiment in a line: NCI In Vivo Anticancer Drug Screen. Data for tumor model Adenocarcinoma 755 (subcutaneous) in C57BL/6 mice. The conditions noted are these: endpoint: mean tumor weight, higher = larger tumour. As to the method:
The antitumor activity of compounds was measured in mice bearing transplantable tumors. Survival or tumor size were measured and the results are expressed as the measurement made in the treated group (T) divided by the measurement made in the vehicle treated control group (C). The tumor model used in this assay is Adenocarcinoma 755 (subcutaneous) in C57BL/6 mice

Setting [1] is: dose: 0.2 mg/kg/injection, schedule: Q01DX011 (ip), vehicle: saline.
Where [2] appears, read: dose: 250.0 mg/kg/injection, schedule: Q01DX011 (ip), vehicle: saline.
Setting [3] is: dose: 500.0 mg/kg/injection, schedule: Q01DX011 (ip), vehicle: saline.
[4] abbreviates: dose: 20.0 mg/kg/injection, schedule: Q01DX011 (ip), vehicle: saline.
[5] abbreviates: dose: 25.0 mg/kg/injection, schedule: Q01DX011 (ip), vehicle: saline.
The mark [6] stands for this setting: dose: 0.25 mg/kg/injection, schedule: Q01DX011 (ip), vehicle: carboxymethylcellulose (CMC).
Where [7] appears, read: dose: 0.5 mg/kg/injection, schedule: Q01DX011 (ip), vehicle: carboxymethylcellulose (CMC).
[8] abbreviates: dose: 1.0 mg/kg/injection, schedule: Q01DX011 (ip), vehicle: carboxymethylcellulose (CMC).
Setting [9] is: dose: 75.0 mg/kg/injection, schedule: Q01DX011 (ip), vehicle: saline.
Setting [10] is: dose: 150.0 mg/kg/injection, schedule: Q01DX011 (ip), vehicle: saline.

The structures appear in SMILES notation. Several values for one entry are separate records, joined by “and”; a condition that tells them apart may be missing. Equal entries are not always repeated.

As for `COC1=C(N)C(=O)c2nc(-c3nc(C(=O)O)c(C)c(-c4ccc(OC)c(OC)c4O)c3N)ccc2C1=O`, the T/C reads like this: (dose: 0.06 mg/kg/injection, schedule: Q01DX011 (ip), vehicle: saline) 84 % of control; (dose: 0.09 mg/kg/injection, schedule: Q01DX011 (ip), vehicle: saline) 77 % of control; (dose: 0.13 mg/kg/injection, schedule: Q01DX011 (ip), vehicle: saline) 64 % of control; under setting [1], 38 % of control.
In the case of `Cc1ccc(N2CCN(CCCN3CCN(c4ccc(Cl)cc4)CC3)CC2)cc1`, the T/C was 93 % of control (dose: 3.1 mg/kg/injection, schedule: Q01DX011 (ip), vehicle: carboxymethylcellulose (CMC)); 83 % of control (dose: 6.25 mg/kg/injection, schedule: Q01DX011 (ip), vehicle: carboxymethylcellulose (CMC)); 90 % of control (dose: 12.5 mg/kg/injection, schedule: Q01DX011 (ip), vehicle: carboxymethylcellulose (CMC)); 52 % of control (dose: 25.0 mg/kg/injection, schedule: Q01DX011 (ip), vehicle: carboxymethylcellulose (CMC)); 43 % of control (dose: 50.0 mg/kg/injection, schedule: Q01DX011 (ip), vehicle: carboxymethylcellulose (CMC)).
As for `O=C(c1ccc(C(=O)N2CC2)cc1)N1CC1`, the T/C is, setting by setting: (dose: 12.5 mg/kg/injection, schedule: Q01DX011 (ip), vehicle: methylcellulose (MC)) 60 % of control; (dose: 25.0 mg/kg/injection, schedule: Q01DX011 (ip), vehicle: methylcellulose (MC)) 53 % of control.
On to `O=c1[nH]cc(S)c(=O)[nH]1`, for which the T/C by setting is: (dose: 100.0 mg/kg/injection, schedule: Q02DX006 (ip), vehicle: other) 86 % of control; (dose: 125.0 mg/kg/injection, schedule: Q02DX006 (ip), vehicle: other) 76 % of control.
On to `CCCCOC(=O)C1(N)CCCC1`, for which the T/C is 52 % of control (dose: 28.0 mg/kg/injection, schedule: Q01DX011 (ip), vehicle: saline) and 24 % of control (dose: 56.0 mg/kg/injection, schedule: Q01DX011 (ip), vehicle: saline).
With `O=[N+]([O-])c1ccc2c(c1)Cc1c-2cc(Br)c(O)c1Br`, the T/C was 60 % of control (dose: 62.5 mg/kg/injection, schedule: Q01DX011 (ip), vehicle: saline); 58 % of control (dose: 125.0 mg/kg/injection, schedule: Q01DX011 (ip), vehicle: saline); 43 % of control under setting [2]; 33 % of control under setting [3].
As for `CCCCNc1ncnc2[nH]ncc12`, the T/C (dose: 15.0 mg/kg/injection, schedule: Q01DX011 (ip), vehicle: saline) is 31 % of control; the T/C under setting [4] is 7 % of control; the T/C under setting [5] is 24 % of control.
On to `O=c1[nH]c(=O)n(C2CC(O)C(CO)O2)cc1C(F)(F)F` (configuration not stated), for which the T/C (dose: 12.5 mg/kg/injection, schedule: Q01DX011 (ip), vehicle: saline) is 81 % of control; the T/C under setting [5] is 52 % of control; the T/C (dose: 50.0 mg/kg/injection, schedule: Q01DX011 (ip), vehicle: saline) is 27 % of control; the T/C (dose: 100.0 mg/kg/injection, schedule: Q01DX011 (ip), vehicle: saline) is 27 % of control.
`CS(=O)(=O)OCCCCCCCCCOS(C)(=O)=O`: the T/C reads like this: under setting [6], 64 % of control; under setting [7], 93 % of control; under setting [8], 162 % of control; (dose: 2.0 mg/kg/injection, schedule: Q01DX011 (ip), vehicle: carboxymethylcellulose (CMC)) 95 % of control; (dose: 4.0 mg/kg/injection, schedule: Q01DX011 (ip), vehicle: carboxymethylcellulose (CMC)) 84 % of control.
In the case of `S=c1nc[nH]c2nc[nH]c12.[Cd]`, the T/C is 60 % of control (dose: 0.1 mg/kg/injection, schedule: Q01DX011 (ip), vehicle: saline); 76 % of control under setting [1]; 60 % of control (dose: 0.4 mg/kg/injection, schedule: Q01DX011 (ip), vehicle: saline); 49 % of control (dose: 0.8 mg/kg/injection, schedule: Q01DX011 (ip), vehicle: saline).
Take `Nc1nc(=S)c2[nH]cnc2[nH]1`: the T/C is 81 % of control (dose: 0.06 mg/kg/injection, schedule: Q01DX011 (ip), vehicle: carboxymethylcellulose (CMC)); 111 % of control (dose: 0.13 mg/kg/injection, schedule: Q01DX011 (ip), vehicle: carboxymethylcellulose (CMC)); 18 % of control under setting [6]; 7 % of control and 8 % of control under setting [7]; 3 % of control (dose: 0.5 mg/kg/injection, schedule: Q01DX011 (ip), vehicle: saline); 7 % of control under setting [8].
On to `CCC(C)N1C(=O)CCC1=O` (configuration not stated), for which the T/C is 102 % of control (dose: 4.7 mg/kg/injection, schedule: Q01DX011 (ip), vehicle: saline); 103 % of control (dose: 9.4 mg/kg/injection, schedule: Q01DX011 (ip), vehicle: saline); 123 % of control (dose: 18.8 mg/kg/injection, schedule: Q01DX011 (ip), vehicle: saline); 119 % of control (dose: 37.5 mg/kg/injection, schedule: Q01DX011 (ip), vehicle: saline); 59 % of control under setting [9]; 95 % of control under setting [10].
On to `CN1CC(=O)NC1=O`, for which the T/C under setting [2] is 49 % of control; the T/C under setting [3] is 68 % of control; the T/C (dose: 1000.0 mg/kg/injection, schedule: Q01DX011 (ip), vehicle: saline) is 41 % of control; the T/C (dose: 2000.0 mg/kg/injection, schedule: Q01DX011 (ip), vehicle: saline) was 70 % of control.
Take `O=P1(N(CCF)CCF)NCCCO1` (configuration not stated): the T/C is, setting by setting: (dose: 0.94 mg/kg/injection, schedule: Q01DX011 (ip), vehicle: saline) 40 % of control; (dose: 1.88 mg/kg/injection, schedule: Q01DX011 (ip), vehicle: saline) 56 % of control; (dose: 3.75 mg/kg/injection, schedule: Q01DX011 (ip), vehicle: saline) 22 % of control.
As to `CCOc1ccccc1C(=O)Nc1ccc(Br)cc1`, the T/C under setting [9] was 94 % of control; the T/C under setting [10] is 98 % of control; the T/C (dose: 300.0 mg/kg/injection, schedule: Q01DX011 (ip), vehicle: saline) was 75 % of control; the T/C (dose: 600.0 mg/kg/injection, schedule: Q01DX011 (ip), vehicle: saline) was 51 % of control.
Consider `CN(C)c1ncnc2c1ncn2C1OC(CO)C(N)C1O` (configuration not stated), for which the T/C under setting [4] is 23 % of control; the T/C under setting [5] was 62 % of control; the T/C (dose: 30.0 mg/kg/injection, schedule: Q01DX011 (ip), vehicle: saline) is 13 % of control; the T/C (dose: 35.0 mg/kg/injection, schedule: Q01DX011 (ip), vehicle: saline) is 9 % of control.

What is called T/C is the result in the treated group divided by that in the control group, in per cent.
